Measured values as given in patent publication US20230382891A1, “GLUTAMINYL-PEPTIDE CYCLOTRANSFERASE LIKE (QPCTL) PROTEIN INHIBITORS AND USES THEREOF” (Blacksmith Medicines, Inc., priority 2020, published 2023).

Target: Glutaminyl-peptide cyclotransferase like (QPCTL) protein (Homo sapiens, UniProt Q9NXS2)
Experiment: Glutaminyl-peptide cyclotransferase like (QPCTL) protein inhibition assay (Gln-AMC substrate, pGAPase coupled)
Assay type: biochemical
Details: 50 mM MES pH 7.0, 10 μM ZnCl2, 0.2 U/mL pGAPase, Gln-AMC at its Km, 30° C.
Method: Example B-1: Glutaminyl-Peptide Cyclotransferase Like (OPCTL) Protein Inhibition Assay
Glutaminyl-peptide cyclotransferase like (QPCTL) protein activity was determined using L-glutamine-7-amido-4-methylcoumarin (Gln-AMC, Santa Cruz Biotechnology) as a substrate. A second enzyme, pyroglutamyl aminopeptidase (pGAPase, Qiagen), was included in the assay to release the AMC fluorophore following cyclization; appropriate controls were run to ensure that inhibitors were not inhibiting the auxiliary enzyme. Inhibitors were added at various concentrations to buffer (final concentrations: 50 mM MES pH 7.0, 10 μM ZnCl2, 0.2 U/mL pGAPase, Gln-AMC at its Km) and the reaction initiated by the addition of QPCTL. Reactions became linear after a 10-minute equilibration period at 30° C. (to accumulate pGlu-AMC intermediate), and were monitored for an additional 10 minutes.
Table A provides QPCTL inhibitory activity of illustrative compounds, where A means IC50 is <1 μM; B means IC50 is between 1 to 10 μM; C means IC50 is between 10 to 50 PM; D means IC50 is >50 PM.

Glutaminyl-peptide cyclotransferase like (QPCTL) protein, sequence (Q9NXS2 whole entry, species assumed): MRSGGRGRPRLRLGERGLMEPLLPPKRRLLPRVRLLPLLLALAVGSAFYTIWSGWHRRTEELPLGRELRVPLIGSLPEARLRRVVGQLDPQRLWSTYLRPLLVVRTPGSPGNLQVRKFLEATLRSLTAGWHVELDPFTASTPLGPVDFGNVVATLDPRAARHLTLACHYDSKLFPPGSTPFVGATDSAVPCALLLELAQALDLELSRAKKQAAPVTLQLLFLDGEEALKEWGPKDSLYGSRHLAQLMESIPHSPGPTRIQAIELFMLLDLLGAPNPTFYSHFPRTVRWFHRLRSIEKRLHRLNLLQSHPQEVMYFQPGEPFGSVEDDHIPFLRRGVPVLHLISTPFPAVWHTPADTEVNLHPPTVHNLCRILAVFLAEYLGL

| Compound | QPCTL IC50 | IC50 [µM] |
| --- | --- | --- |
| CNc1nnc(C2CCN(c3ncccc3-c3ccc(F)nc3)CC2)[nH]1 [Compound 7, 5-(1-(6′-fluoro-[3,3′-bipyridin]-2-yl)piperidin-4-yl)-N-methyl-4H-1,2,4-triazol-3-amine] | – | < 1 |
| C1=C(c2cccn3cnnc23)CCN(c2ncccc2-c2cncnc2)C1 [Compound 16, 8-(3′-(pyrimidin-5-yl)-3,6-dihydro-2H-[1,2′-bipyridin]-4-yl)-[1,2,4]triazolo[4,3-a]pyridine] | C (C means IC50 is between 10 to 50 PM) | – |
| 1-(1-(6′-chloro-[3,3′-bipyridin]-2-yl)piperidin-4-yl)-1H-1,2,3-triazol-4-amine [Compound 3] | – | < 1 |
| Nc1nnc2c(C3=CCN(c4ncccc4-c4ccc(F)nc4)CC3)cccn12 [Compound 15, 8-(6″-fluoro-3,6-dihydro-2H-[1,2′:3′,3″-terpyridin]-4-yl)-[1,2,4]triazolo[4,3-a]pyridin-3-amine] | – | < 1 |
| Cn1c(N)nnc1C1CCN(c2nc(F)ccc2-c2ccc(F)nc2)CC1 [Compound 5, 5-(1-(6,6′-difluoro-[3,3′-bipyridin]-2-yl)piperidin-4-yl)-4-methyl-4H-1,2,4-triazol-3-amine] | – | < 1 |
| Cc1ccc(-c2ccc(F)nc2)c(N2CCC(c3nnc(N)n3C)CC2)n1 [Compound 4, 5-(1-(6′-fluoro-6-methyl-[3,3′-bipyridin]-2-yl)piperidin-4-yl)-4-methyl-4H-1,2,4-triazol-3-amine] | – | < 1 |
| Fc1ccc(CN2CC=C(c3cccn4cnnc34)CC2)cn1 [Compound 21, 8-(1-((6-fluoropyridin-3-yl)methyl)-1,2,3,6-tetrahydropyridin-4-yl)-[1,2,4]triazolo[4,3-a]pyridine] | D (D means IC50 is >50 PM) | – |
| Nc1ccc(-c2cccnc2N2CC=C(c3cccn4cnnc34)CC2)cn1 [Compound 13, 4-([1,2,4]triazolo[4,3-a]pyridin-8-yl)-3,6-dihydro-2H-[1,2′:3′,3″-terpyridin]-6″-amine] | – | 1 to 10 |
| Nc1nnc(C2CCN(c3ncccc3-c3ccc(F)nc3)CC2)[nH]1 [Compound 1, 5-(1-(6′-fluoro-[3,3′-bipyridin]-2-yl)piperidin-4-yl)-4H-1,2,4-triazol-3-amine] | – | < 1 |
| Cc1c(N)nnn1C1CCN(c2ncccc2-c2ccc(F)nc2)CC1 [Compound 10, 1-(1-(6′-fluoro-[3,3′-bipyridin]-2-yl)piperidin-4-yl)-5-methyl-1H-1,2,3-triazol-4-amine] | – | < 1 |
| N#Cc1ccc(-c2cccnc2N2CC=C(c3cccn4cnnc34)CC2)cn1 [Compound 12, 4-([1,2,4]triazolo[4,3-a]pyridin-8-yl)-3,6-dihydro-2H-[1,2′:3′,3″-terpyridine]-6″-carbonitrile] | – | 1 to 10 |
| Nc1nnc(C2CCN(c3ncccc3-c3ccc(F)nc3)CC2)o1 [Compound 2, 5-(1-(6′-fluoro-[3,3′-bipyridin]-2-yl)piperidin-4-yl)-1,3,4-oxadiazol-2-amine] | – | < 1 |
| Cn1c(N)nnc1C1CCN(c2ncccc2-c2ccc(F)nc2)CC1 [Compound 6, 5-(1-(6′-fluoro-[3,3′-bipyridin]-2-yl)piperidin-4-yl)-4-methyl-4H-1,2,4-triazol-3-amine] | – | < 1 |
| Fc1ccc(-c2cccnc2N2CC=C(c3cccn4cnnc34)CC2)cc1F [Compound 11, 8-(3′-(3,4-difluorophenyl)-3,6-dihydro-2H-[1,2′-bipyridin]-4-yl)-[1,2,4]triazolo[4,3-a]pyridine] | C (C means IC50 is between 10 to 50 PM) | – |
| COc1ccc(-c2cccnc2N2CC=C(c3cccn4cnnc34)CC2)cn1 [Compound 14, 8-(6″-methoxy-3,6-dihydro-2H-[1,2′:3′,3″-terpyridin]-4-yl)-[1,2,4]triazolo[4,3-a]pyridine] | – | 1 to 10 |

The remaining lines, values ahead:

| QPCTL IC50 | IC50 [µM] | Compound |
| --- | --- | --- |
| C (C means IC50 is between 10 to 50 PM) | – | COc1ccc(C2=CCCN(CC#Cc3cccn4cnnc34)C2)cc1OC [Compound 23, 8-(3-(5-(3,4-dimethoxyphenyl)-3,6-dihydropyridin-1(2H)-yl)prop-1-yn-1-yl)-[1,2,4]triazolo[4,3-a]pyridine] |
| – | 1 to 10 | OCCn1cc(C2CN(c3ccccn3)CC=C2c2cccn3cnnc23)cn1 (stereo not shown) [Compound 26, 2-(4-(4-([1,2,4]triazolo[4,3-a]pyridin-8-yl)-3,6-dihydro-2H-[1,2′-bipyridin]-3-yl)-1H-pyrazol-1-yl)ethan-1-ol] |
| – | 1 to 10 | Fc1ccc(-c2cccnc2N2CC=C(c3cccn4cncc34)CC2)cn1 [Compound 20, 8-(6″-fluoro-3,6-dihydro-2H-[1,2′:3′,3″-terpyridin]-4-yl)imidazo[1,5-a]pyridine] |
| C (C means IC50 is between 10 to 50 PM) | – | c1ccc(N2CCC(C3CCCn4cnnc43)CC2)nc1 (stereo not shown) [Compound 27, 8-(1-(pyridin-2-yl)piperidin-4-yl)-5,6,7,8-tetrahydro-[1,2,4]triazolo[4,3-a]pyridine] |
| – | < 1 | Nc1nnc2c(C3CCN(c4ncccc4-c4ccc(F)nc4)CC3)cccn12 [Compound 17, 8-(1-(6′-fluoro-[3,3′-bipyridin]-2-yl)piperidin-4-yl)-[1,2,4]triazolo[4,3-a]pyridin-3-amine] |
| D (D means IC50 is >50 PM) | – | COc1ccc(CN2CCC=C(c3cccn4cnnc34)C2)cc1OC [Compound 25, 8-(1-(3,4-dimethoxybenzyl)-1,2,5,6-tetrahydropyridin-3-yl)-[1,2,4]triazolo[4,3-a]pyridine] |
| – | 1 to 10 | Fc1ccc(-c2cccnc2N2CC=C(c3cccn4cnnc34)CC2)cn1 [Compound 18, 8-(6″-fluoro-3,6-dihydro-2H-[1,2′:3′,3″-terpyridin]-4-yl)-[1,2,4]triazolo[4,3-a]pyridine] |
| – | 1 to 10 | COCCOc1ccc(-c2cccnc2N2CC=C(c3cccn4cnnc34)CC2)cn1 [Compound 19, 8-(6″-(2-methoxyethoxy)-3,6-dihydro-2H-[1,2′:3′,3″-terpyridin]-4-yl)-[1,2,4]triazolo[4,3-a]pyridine] |
| – | 1 to 10 | C1=C(c2cccn3cncc23)CCN(c2ccccn2)C1 [Compound 24, 8-(3,6-dihydro-2H-[1,2′-bipyridin]-4-yl)imidazo[1,5-a]pyridine] |
| C (C means IC50 is between 10 to 50 PM) | – | C1=C(c2cccn3cnnc23)CCN(c2ccccn2)C1 [Compound 22, 8-(3,6-dihydro-2H-[1,2′-bipyridin]-4-yl)-[1,2,4]triazolo[4,3-a]pyridine] |
